Converted amounts (≈) assume the structure as drawn. The source made the active and inactive calls. The calls are words filed in the database; no cut-off is given here.
test system: A549; experiment: Inhibition of tyrosine kinase in human A549 cells at IC50 after 24 hrs by ELISA relative to control; type: cell-based; details: not given

Point of comparison: `Nc1cc2nc3ccccc3nc2cc1N`, inhibition 80%. Against it:
- c1ccc2nc3cc4[nH]cnc4cc3nc2c1 — lower, 5%
- CCCc1nc2cc3nc4ccccc4nc3cc2[nH]1 — lower, 70%
- S=c1[nH]c2cc3nc4ccccc4nc3cc2[nH]1 — higher, 86%
- CCOC(=O)c1nn(-c2ccccc2)c2nc3cc4nc5ccccc5nc4cc3n12 — lower, 11%
- CC1(C)CC(=O)C(/N=N/c2cc3nc4ccccc4nc3cc2N)C(=O)C1 — lower, 2%
- Nc1cc2nc3ccccc3nc2cc1/N=N/C1C(=O)ON=C1c1ccccc1 (stereo unspecified) — lower, 72%
- CCOC(=O)c1nn(-c2ccc(C)cc2)c2nc3cc4nc5ccccc5nc4cc3n12 — lower, 14%
- Clc1cccc(-c2nc3cc4nc5ccccc5nc4cc3[nH]2)c1 — lower, 15%
- CSc1nc2cc3nc4ccccc4nc3cc2[nH]1 — higher, 85%
- CCOC(=O)c1nn(-c2ccc(Cl)cc2)c2nc3cc4nc5ccccc5nc4cc3n12 — lower, 50%
- Clc1ccc(-c2nc3cc4nc5ccccc5nc4cc3[nH]2)c(Cl)c1 — lower, 16%
- O=C(Nc1cc2nc3ccccc3nc2cc1NC(=O)c1ccccc1)c1ccccc1 — lower, 1%
- CC1=NN(c2ccccc2)C(=O)C1/N=N/c1cc2nc3ccccc3nc2cc1N (stereo unspecified) — lower, 4%
- O=c1oc(=O)c2[nH]c3cc4nc5ccccc5nc4cc3[nH]c1=2 — lower, 2%

test system: A549; experiment: Antiproliferative activity against human A549 cells; type: functional, cell-based; details: not given

Point of comparison: `Clc1ccc(-c2nc3cc4nc5ccccc5nc4cc3[nH]2)c(Cl)c1`, IC50 11.5 µg/mL (≈ 31.5 µM). Against it:
- c1ccc2nc3cc4[nH]cnc4cc3nc2c1 — 1.9-fold higher, 21.7 µg/mL (≈ 98.5 µM)
- CCCc1nc2cc3nc4ccccc4nc3cc2[nH]1 — within 1.5-fold, 8.4 µg/mL (≈ 32 µM)
- S=c1[nH]c2cc3nc4ccccc4nc3cc2[nH]1 — within 1.5-fold, 7.7 µg/mL (≈ 30.5 µM)
- CCOC(=O)c1nn(-c2ccccc2)c2nc3cc4nc5ccccc5nc4cc3n12 — 1.8-fold higher, 21 µg/mL (≈ 51.4 µM)
- CC1(C)CC(=O)C(/N=N/c2cc3nc4ccccc4nc3cc2N)C(=O)C1 — 1.9-fold higher, 22.3 µg/mL (≈ 61.7 µM)
- Nc1cc2nc3ccccc3nc2cc1/N=N/C1C(=O)ON=C1c1ccccc1 (stereo unspecified) — within 1.5-fold, 9.8 µg/mL (≈ 25.6 µM)
- CCOC(=O)c1nn(-c2ccc(C)cc2)c2nc3cc4nc5ccccc5nc4cc3n12 — 1.7-fold higher, 19 µg/mL (≈ 45 µM)
- Nc1cc2nc3ccccc3nc2cc1N — within 1.5-fold, 8.8 µg/mL (≈ 41.9 µM)
- Clc1cccc(-c2nc3cc4nc5ccccc5nc4cc3[nH]2)c1 — within 1.5-fold, 13.8 µg/mL (≈ 41.7 µM)
- CSc1nc2cc3nc4ccccc4nc3cc2[nH]1 — within 1.5-fold, 8.4 µg/mL (≈ 31.5 µM)
- CCOC(=O)c1nn(-c2ccc(Cl)cc2)c2nc3cc4nc5ccccc5nc4cc3n12 — 1.5-fold higher, 17.6 µg/mL (≈ 39.7 µM)
- O=C(Nc1cc2nc3ccccc3nc2cc1NC(=O)c1ccccc1)c1ccccc1 — 2.1-fold higher, 23.6 µg/mL (≈ 56.4 µM)
- CC1=NN(c2ccccc2)C(=O)C1/N=N/c1cc2nc3ccccc3nc2cc1N (stereo unspecified) — 1.9-fold higher, 22 µg/mL (≈ 55.6 µM)
- O=c1oc(=O)c2[nH]c3cc4nc5ccccc5nc4cc3[nH]c1=2 — 2.4-fold higher, 27.6 µg/mL (≈ 90.7 µM)

With `O=c1[nH]c2cc3nc4ccccc4nc3cc2[nH]c1=O` the Activity was “inactive”.
With `c1ccc(-c2nc3cc4nc5ccccc5nc4cc3[nH]2)cc1` the Activity was “inactive”.
In the case of `CCOC(=O)/C(=N/Nc1ccccc1)Nc1cc2nc3ccccc3nc2cc1N`, the Activity was “inactive”.
In the case of `c1ccc2nc3c(nc2c1)Nc1cc2nc4ccccc4nc2cc1N3`, the Activity was “inactive”.
For `O=C1CC(=O)Nc2cc3nc4ccccc4nc3cc2N1`, the Activity was “inactive”.
In the case of `C(=C\c1nc2cc3nc4ccccc4nc3cc2[nH]1)/c1ccccc1`, the Activity was “inactive”.
In the case of `CC1CC(=O)Nc2cc3nc4ccccc4nc3cc2N1` (stereo unspecified), the Activity was “inactive”.
With `O=c1[nH]c2cc3nc4ccccc4nc3cc2[nH]/c1=N/Nc1ccccc1` the Activity was “inactive”.

test system: not listed separately; experiment: (§1) Antiproliferative activity against human HCT116 cells; type: functional, cell-based; details: HCT-116

Point of comparison: `O=c1oc(=O)c2[nH]c3cc4nc5ccccc5nc4cc3[nH]c1=2`, IC50 14.6 µg/mL (≈ 48 µM). Against it:
- c1ccc2nc3cc4[nH]cnc4cc3nc2c1 — within 1.5-fold, 11.4 µg/mL (≈ 51.8 µM)
- CCCc1nc2cc3nc4ccccc4nc3cc2[nH]1 — 2.2-fold lower, 6.5 µg/mL (≈ 24.8 µM)
- S=c1[nH]c2cc3nc4ccccc4nc3cc2[nH]1 — 3.3-fold lower, 4.4 µg/mL (≈ 17.4 µM)
- CCOC(=O)c1nn(-c2ccccc2)c2nc3cc4nc5ccccc5nc4cc3n12 — within 1.5-fold, 11.2 µg/mL (≈ 27.4 µM)
- CC1(C)CC(=O)C(/N=N/c2cc3nc4ccccc4nc3cc2N)C(=O)C1 — within 1.5-fold, 13.9 µg/mL (≈ 38.5 µM)
- Nc1cc2nc3ccccc3nc2cc1/N=N/C1C(=O)ON=C1c1ccccc1 (stereo unspecified) — 2.1-fold lower, 6.8 µg/mL (≈ 17.8 µM)
- CCOC(=O)c1nn(-c2ccc(C)cc2)c2nc3cc4nc5ccccc5nc4cc3n12 — 1.5-fold lower, 9.6 µg/mL (≈ 22.7 µM)
- Nc1cc2nc3ccccc3nc2cc1N — 2.4-fold lower, 6 µg/mL (≈ 28.5 µM)
- Clc1cccc(-c2nc3cc4nc5ccccc5nc4cc3[nH]2)c1 — 1.8-fold lower, 7.9 µg/mL (≈ 23.9 µM)
- CSc1nc2cc3nc4ccccc4nc3cc2[nH]1 — 2.8-fold lower, 5.2 µg/mL (≈ 19.5 µM)
- CCOC(=O)c1nn(-c2ccc(Cl)cc2)c2nc3cc4nc5ccccc5nc4cc3n12 — 1.7-fold lower, 8.75 µg/mL (≈ 19.8 µM)
- Clc1ccc(-c2nc3cc4nc5ccccc5nc4cc3[nH]2)c(Cl)c1 — 2.1-fold lower, 6.8 µg/mL (≈ 18.6 µM)
- O=C(Nc1cc2nc3ccccc3nc2cc1NC(=O)c1ccccc1)c1ccccc1 — within 1.5-fold, 17.5 µg/mL (≈ 41.8 µM)
- CC1=NN(c2ccccc2)C(=O)C1/N=N/c1cc2nc3ccccc3nc2cc1N (stereo unspecified) — within 1.5-fold, 11.9 µg/mL (≈ 30.1 µM)

test system: HCT-116; experiment: as §1; type: functional, cell-based; details: not given

With `O=c1[nH]c2cc3nc4ccccc4nc3cc2[nH]c1=O` the Activity was “inactive”.
With `c1ccc(-c2nc3cc4nc5ccccc5nc4cc3[nH]2)cc1` the Activity was “inactive”.
In the case of `CCOC(=O)/C(=N/Nc1ccccc1)Nc1cc2nc3ccccc3nc2cc1N`, the Activity was “inactive”.
With `c1ccc2nc3c(nc2c1)Nc1cc2nc4ccccc4nc2cc1N3` the Activity was “inactive”.
For `O=C1CC(=O)Nc2cc3nc4ccccc4nc3cc2N1`, the Activity was “inactive”.
With `C(=C\c1nc2cc3nc4ccccc4nc3cc2[nH]1)/c1ccccc1` the Activity was “inactive”.
In the case of `CC1CC(=O)Nc2cc3nc4ccccc4nc3cc2N1` (stereo unspecified), the Activity was “inactive”.
With `O=c1[nH]c2cc3nc4ccccc4nc3cc2[nH]/c1=N/Nc1ccccc1` the Activity was “inactive”.

test system: HCT-116; experiment: Inhibition of tyrosine kinase in human HCT116 cells at IC50 after 24 hrs by ELISA relative to control; type: cell-based; details: not given

Point of comparison: `Clc1cccc(-c2nc3cc4nc5ccccc5nc4cc3[nH]2)c1`, inhibition 17%. Against it:
- c1ccc2nc3cc4[nH]cnc4cc3nc2c1 — lower, 3%
- CCCc1nc2cc3nc4ccccc4nc3cc2[nH]1 — higher, 64%
- S=c1[nH]c2cc3nc4ccccc4nc3cc2[nH]1 — higher, 85%
- CCOC(=O)c1nn(-c2ccccc2)c2nc3cc4nc5ccccc5nc4cc3n12 — lower, 4%
- CC1(C)CC(=O)C(/N=N/c2cc3nc4ccccc4nc3cc2N)C(=O)C1 — lower, 0.6%
- Nc1cc2nc3ccccc3nc2cc1/N=N/C1C(=O)ON=C1c1ccccc1 (stereo unspecified) — higher, 68%
- CCOC(=O)c1nn(-c2ccc(C)cc2)c2nc3cc4nc5ccccc5nc4cc3n12 — higher, 18%
- Nc1cc2nc3ccccc3nc2cc1N — higher, 72%
- CSc1nc2cc3nc4ccccc4nc3cc2[nH]1 — higher, 84%
- CCOC(=O)c1nn(-c2ccc(Cl)cc2)c2nc3cc4nc5ccccc5nc4cc3n12 — higher, 37%
- Clc1ccc(-c2nc3cc4nc5ccccc5nc4cc3[nH]2)c(Cl)c1 — lower, 12%
- O=C(Nc1cc2nc3ccccc3nc2cc1NC(=O)c1ccccc1)c1ccccc1 — lower, 0.5%
- CC1=NN(c2ccccc2)C(=O)C1/N=N/c1cc2nc3ccccc3nc2cc1N (stereo unspecified) — lower, 2%
- O=c1oc(=O)c2[nH]c3cc4nc5ccccc5nc4cc3[nH]c1=2 — lower, 0.4%

Source: ChEMBL document CHEMBL3397005, “Synthesis and antiproliferative activity of novel polynuclear heterocyclic compounds derived from 2,3-diaminophenazine” (Eur J Med Chem, 2015)
